# Data reported in US12190997B2, “Genetically altered LysM receptors with altered agonist specificity and affinity” (Aarhus Universitet, priority 2018, dated 2025).
# B1: wild type Nfp gene: wild type Medicago NFP LysM receptor transgene used for hairy root complementation (protein, UniProt Q0GXS4 28-595, looked up)
# Serine/threonine …: QPLYISETNFTCPVDSPPSCETYVAYRAQSPNFLSLSNISDIFNLSPLRIAKASNIEAEDKKLIPDQLLLVPVTCGCTKNHSFANITYSIKQGDNFFILSITSYQNLTNYLEFKNFNPNLSPTLLPLDTKVSVPLFCKCPSKNQLNKGIKYLITYVWQDNDNVTLVSSKFGASQVEMLAENNHNFTASTNRSVLIPVTSLPKLDQPSSNGRKSSSQNLALIIGISLGSAFFILVLTLSLVYVYCLKMKRLNRSTSSSETADKLLSGVSGYVSKPTMYEIDAIMEGTTNLSDNCKIGESVYKANIDGRVLAVKKIKKDASEELKILQKVNHGNLVKLMGVSSDNDGNCFLVYEYAENGSLEEWLFSESSKTSNSVVSLTWSQRITIAMDVAIGLQYMHEHTYPRIIHRDITTSNILLGSNFKAKIANFGMARTSTNSMMPKIDVFAFGVVLIELLTGKKAMTTKENGEVVILWKDFWKIFDLEGNREERLRKWMDPKLESFYPIDNALSLASLAVNCTADKSLSRPTIAEIVLCLSLLNQPSSEPMLERSLTSGLDAEATHVVTSVIAR
# B2: double mutant construct (L147D/L154D): Medicago NFP with leucine residues L147 and L154 replaced with aspartate (hydrophobic patch mutant) (protein, UniProt Q0GXS4 28-595, looked up, variant L147D L154D)
# Serine/threonine …: QPLYISETNFTCPVDSPPSCETYVAYRAQSPNFLSLSNISDIFNLSPLRIAKASNIEAEDKKLIPDQLLLVPVTCGCTKNHSFANITYSIKQGDNFFILSITSYQNLTNYLEFKNFNPNDSPTLLPDDTKVSVPLFCKCPSKNQLNKGIKYLITYVWQDNDNVTLVSSKFGASQVEMLAENNHNFTASTNRSVLIPVTSLPKLDQPSSNGRKSSSQNLALIIGISLGSAFFILVLTLSLVYVYCLKMKRLNRSTSSSETADKLLSGVSGYVSKPTMYEIDAIMEGTTNLSDNCKIGESVYKANIDGRVLAVKKIKKDASEELKILQKVNHGNLVKLMGVSSDNDGNCFLVYEYAENGSLEEWLFSESSKTSNSVVSLTWSQRITIAMDVAIGLQYMHEHTYPRIIHRDITTSNILLGSNFKAKIANFGMARTSTNSMMPKIDVFAFGVVLIELLTGKKAMTTKENGEVVILWKDFWKIFDLEGNREERLRKWMDPKLESFYPIDNALSLASLAVNCTADKSLSRPTIAEIVLCLSLLNQPSSEPMLERSLTSGLDAEATHVVTSVIAR
# B3: LjCERK6: unaltered Lotus CERK6 chitin receptor protein (SEQ ID NO:34), negative control (protein)
# chain: MEHPRLGFPITLLLFSFILLPSTSQSKCTHGCALAQASYYLLNGSNLTYISEIMQSSLLTKPEDIVSYNQDTIASKDSVQAGQRINVPFPCDCIEGEFLGHTFQYDVQKGDRYDTIAGTNYANLTTVEWLRRFNSYPPDNIPDTGTLNVTVNCSCGDSGVGDYGLFVTYPLRPGETLGSVASNVKLDSALLQKYNPNVNFNQGSGIVYIPAKDQNGSYVLLGSSSGGLAGGAIAGIAAGVAVCLLLLAGFIYVGYFRKKRIQKEELLSQETRAIFPQDGKDENPRSTVNETPGPGGPAAMAGITVDKSVEFSYDELATATDNFSLANKIGQGGFGSVYYAELRGERAAIKKMDMQASKEFLAELKVLTRVHHLNLVRLIGYSIEGSLFLVYEFIENGNLSQHLRGSGRDPLPWATRVQIALDSARGLEYIHEHTVPVYIHRDIKSANILIDKNYRGKVADFGLTKLTEVGSSSLPTGRLVGTFGYMPPEYAQYGDVSPKVDVYAFGVVLYELISAKDAIVKTSESITDSKGLVALFEGVLSQPDPTEDLRKLVDQRLGDNYPVDSVRKMAQLAKACTQDNPQLRPSMRSIVVALMTLSSTTDDWDVGSFYENQNLVNLMSGR
# Key:
# [1] = biological target: T1, NFP L147D/L154D mutant (Medicago truncatula, UniProt Q0GXS4, L147D/L154D); test: BLI binding of NFP L147D/L154D mutant ectodomain to S. meliloti LCO-IV
# T1 construct: The Medicago truncatula NFP ectodomain (residues 28-246) was codon-optimized; AcMNPV gp67 signal peptide (replaces native residues 1-27) (N, cleaved yes); made in house; host or cells: Sf9 insect cells (Spodoptera frugiperda), baculovirus, secreted into the medium
# Text: Creation of NFP point mutations: The NFP leucine residues L147 and L154 were replaced with aspartate residues. Aspartate is similar in size to leucine, but negatively charged where leucine is hydrophobic. Point mutants of NFP were engineered using site-directed mutagenesis. In particular, a double-mutated NFP was engineered where the leucine residues L147 and L154 were replaced with aspartate residues to create the mutant NFP L147D L154D. Point mutated versions of NFP were expressed and purified as described in Example 1.
# NFP mutant binding assays: The binding assay using NFP wild type (WT) protein was replicated seven times, while the binding assay using the NFP mutant NFP L147D L154D was replicated four times.
# Biolayer interferometry (BLI): Binding of NFP WT and NFP L147D/L154D mutant to S. meliloti LCO-IV was measured on an Octet RED 96 system (Pall ForteBio). S. meliloti LCO consists of a tetrameric/pentameric N-acetylglucosamine backbone that is O-sulfated on the reducing terminal residue, O-acetylated on the non-reducing terminal residue, and mono-N-acylated by unsaturated C16 acyl groups. Biotinylated ligand conjugates were immobilized on streptavidin biosensors (kinetic quality, Pall ForteBio) at a concentration of 125-250 nM for 5 minutes. The binding assays were replicated 7 times for the NFP WT, and 4 times for the NFP L147D/L154D mutant. Data analysis was performed in GraphPad Prism 6 software (GraphPad Software, Inc.). Equilibrium dissociation constants derived from the steady-state were determined by applying a non-linear regression (one site, specific binding) to the response at equilibrium plotted against the protein concentration. Kinetic parameters were determined by non-linear regression (association followed by dissociation) on the subtracted data. Binding of A. thaliana CERK1 (AtCERK1) to chitopentaose (CO5) and chitooctaose (CO8) was measured in the same way.
# [2] = system: Medicago nfp mutants; test: Complementation (nodulation) of Medicago nfp mutants, inoculation with S. meliloti strain 2011; format: in vivo, Medicago truncatula; settings: 6-7 weeks after inoculation with S. meliloti strain 2011, hairy root transformation
# Text: (§1) Complementation assay: Construct assembly, plant growth conditions, hairy root transformations, nodulation and ROS assays were generally conducted as described in Bozsoki et al. (2017) (Bozsoki Z, Cheng J, Feng F, Gysel K, Vinther M, Andersen K R, Oldroyd G, Blaise M, Radutoiu S, Stougaard J (2017) Receptor-mediated chitin perception in legume roots is functionally separable from Nod factor perception. Proc Natl Acad Sci 114: E8118-E8127). The tested transgenes were the mutated LysM receptors described in Example 2.
# [3] = system: Medicago nfp mutants; test: Complementation (nodulation) of Medicago nfp mutants, inoculation with S. medicae; format: in vivo, Medicago truncatula
# Text: as §1
# These complementation experiments were repeated using S. medicae inoculation, which has been reported to nodulate Medicago with higher efficiency. The results shown in FIG. 4B are complementation tests where the plants were inoculated with S. medicae.
# [4] = system: L. japonicus nfr1-1 mutant roots; test: Nodulation complementation of L. japonicus nfr1-1 mutants with LjNFR1/MtLYK3 chimeras, M. loti R7A; format: in vivo, Lotus japonicus; settings: 35 days post inoculation with M. loti R7A
# Text: Complementation assay: Construct assembly, plant growth conditions, hairy root transformations, nodulation and ROS assays were generally conducted as described in Bozsoki et al. (2017) (Bozsoki Z, Cheng J, Feng F, Gysel K, Vinther M, Andersen K R, Oldroyd G, Blaise M, Radutoiu S, Stougaard J (2017) Receptor-mediated chitin perception in legume roots is functionally separable from Nod factor perception. Proc Natl Acad Sci 114: E8118-E8127). A general schematic of the construct is provided in FIG. 3, whereby the pNFR1 promoter was used to drive the chimeric constructs. The tested chimeric receptors in Lotus are depicted as block diagrams below the graph in FIG. 7, where NFR1 domains are shown in white and LYK3 domains are shown in grey, and transverse lines across the block depicting the LysM1 domain indicate sections II and IV. […] Nodules were counted on hairy root transformed L. japonicus nfr1-1 mutant roots 35 days post inoculation with M. loti R7Å. M. loti R7A is the cognate N-fixing bacterial strain for L. japonicus, and is not recognized by M. truncatula.
molecule,measurement,setting,value
CCCCCC/C=C\CCCCC/C=C/C(=O)N[C@H]1[C@H](O[C@H]2[C@H](O)[C@@H](NC(C)=O)[C@H](O[C@H]3[C@H](O)[C@@H](NC(C)=O)[C@H](O[C@H]4[C@H](O)[C@@H](NC(C)=O)C(O)O[C@@H]4COS(=O)(=O)O)O[C@@H]3CO)O[C@@H]2CO)O[C@H](COC(C)=O)[C@@H](O)[C@@H]1O (some centres unmarked) [S. meliloti LCO-IV],association rate (kon) faster compared to WT NFP-ECD,[1]; FIGS. 19A-19C,4.5 fold
same,dissociation rate (koff) increased compared to WT NFP-ECD,[1]; FIGS. 19A-19C,59 fold
same,Kd,"[1]; S. meliloti LCO-IV, FIG. 2B",48 ± 1 µM
same,Kd,"[1]; purified L147D/L154D NFP-ECD, FIGS. 19A-19C",167 ± 4.2 µM
same,affinity compared with NFP WT,"[1]; S. meliloti LCO-IV, FIG. 2B",approximately two times lower affinity
same,association (Kon) compared with NFP WT,"[1]; S. meliloti LCO-IV, FIG. 2B",almost unaffected
same,dissociation (Koff) faster than NFP WT,"[1]; S. meliloti LCO-IV, FIG. 2B",approximately 15 times
B1,nodules per plant,[2],10 nodules per plant
B2,nodules per plant,[2],did not develop any nodules
same,complementation,[3],complements poorly
B3,complementation (nodulation),[4],zero nodulation
